Assays:
Bcl-2-like protein 1 [1] = biological target: T1, Bcl-2-like protein 1 (Homo sapiens, UniProt Q07817); experiment: Displacement of Bad-derived peptide from Bcl-xL by fluorescence polarization assay
[2] = biological target: Apoptosis regulator Bcl-2 (Homo sapiens, UniProt P10415); experiment: Displacement of Bax-derived peptide from Bcl2 by fluorescence polarization assay
Bcl-2-like protein 1 [3] = biological target: T1, Bcl-2-like protein 1; experiment: Displacement of Bad-derived peptide from Bcl-xL by FPA in presence of 10% human serum
FL5.12 = experiment: Reversal of cytokine withdrawal protection in IL3 dependent Bcl-xL overexpressing mouse FL5.12 cells in presence of 3% FBS; format: functional
[4] = Reversal of cytokine withdrawal protection in IL3 dependent Bcl-xL overexpressing mouse FL5.12 cells

T1 sequence (Q07817 whole entry): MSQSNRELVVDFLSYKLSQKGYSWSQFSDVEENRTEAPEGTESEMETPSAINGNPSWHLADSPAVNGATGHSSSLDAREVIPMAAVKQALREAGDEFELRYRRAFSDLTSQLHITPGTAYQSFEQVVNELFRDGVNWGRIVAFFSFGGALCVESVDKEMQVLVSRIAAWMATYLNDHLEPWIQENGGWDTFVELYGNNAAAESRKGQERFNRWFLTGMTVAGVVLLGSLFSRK
Chain of Apoptosis regulator Bcl-2 (P10415 whole entry): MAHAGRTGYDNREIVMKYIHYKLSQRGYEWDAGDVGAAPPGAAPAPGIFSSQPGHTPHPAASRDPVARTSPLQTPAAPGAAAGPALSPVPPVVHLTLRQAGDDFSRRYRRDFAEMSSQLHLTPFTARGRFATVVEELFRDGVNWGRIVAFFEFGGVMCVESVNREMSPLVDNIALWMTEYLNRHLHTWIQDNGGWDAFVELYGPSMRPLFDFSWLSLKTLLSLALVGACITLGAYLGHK

Row | SMILES | Ki (Bcl-2-like protein 1 [1]) [nM] | Ki [2] [nM] | IC50 (Bcl-2-like protein 1 [3]) [nM] | EC50 (FL5.12) [nM] | IC50 (Bcl-2-like protein 1 [1]) [nM] | EC50 [4] [nM]
1 | CN(C)CC[C@H](CSc1ccccc1)Nc1ccc(S(=O)(=O)NC(=O)c2ccc(N3CCN(Cc4ccccc4-c4ccccc4)CC3)cc2)cc1[N+](=O)[O-] | < 0.5 | < 1 | < 60 | 1200 |  | 
2 | CN(C)CC[C@H](CSc1ccccc1)Nc1ccc(S(=O)(=O)NC(=O)c2ccc(N3CCN(Cc4ccccc4-c4ccc(S(C)(=O)=O)cc4)CC3)cc2)cc1[N+](=O)[O-] |  | < 1 | < 60 | 6700 | 9.1 | 
3 | CN(C)CC[C@H](CSc1ccccc1)Nc1ccc(S(=O)(=O)NC(=O)c2ccc(N3CCC(C)(C)CC3)cc2)cc1[N+](=O)[O-] |  |  | 360 | 5100 |  | 470
4 | CN(C)CC[C@H](CSc1ccccc1)Nc1ccc(S(=O)(=O)NC(=O)c2ccc(N3CCN(Cc4ccccc4-c4ccc(F)cc4)CC3)cc2)cc1[N+](=O)[O-] | < 0.5 | < 1 | < 60 | 710 |  | 

The remaining lines, values ahead:

Row | Ki (Bcl-2-like protein 1 [1]) [nM] | Ki [2] [nM] | IC50 (Bcl-2-like protein 1 [3]) [nM] | EC50 (FL5.12) [nM] | IC50 (Bcl-2-like protein 1 [1]) [nM] | EC50 [4] [nM] | SMILES
5 | < 0.5 | 16.9 | 140 | 2800 |  |  | CN(C)CC[C@H](CSc1ccccc1)Nc1ccc(S(=O)(=O)NC(=O)c2ccc(N3CCN(Cc4ccccc4-c4cccc(Cl)c4)CC3)cc2)cc1[N+](=O)[O-]
6 | < 0.5 | < 1 | 178 | 4500 |  |  | COc1cccc(-c2ccccc2CN2CCN(c3ccc(C(=O)NS(=O)(=O)c4ccc(N[C@H](CCN(C)C)CSc5ccccc5)c([N+](=O)[O-])c4)cc3)CC2)c1
7 | < 0.5 | < 1 | < 60 | 700 |  |  | COc1ccc(-c2ccccc2CN2CCN(c3ccc(C(=O)NS(=O)(=O)c4ccc(N[C@H](CCN(C)C)CSc5ccccc5)c([N+](=O)[O-])c4)cc3)CC2)cc1
